Measurements: US20260345595A1, “NOVEL FLUORENE DERIVATIVE COMPOUND AND USE THEREOF” (JD BIOSCIENCE INC., priority 2022, published 2026)

Experiments:
[1] = system: acute kidney ischemic reperfusion (IR) injury in C57BL6J mice; assay: Acute kidney ischemic reperfusion (IR) injury animal model; format: in vivo, mouse; conditions: 4 μg/kg and 8 μg/kg, tail vein
Procedure: Vehicle and Compound 1 (4 μg/kg or 8 μg/kg) were administered to 8-week-old male C57BL6J mice via the tail vein 24 hours before, 1 hour before, and 12 hours after ischemic reperfusion (IR) surgery. The surgery was performed by blocking the artery leading to the kidney to induce ischemia for 37 minutes. The blocked artery was released, and 24 hours later, the mice were anesthetized and autopsied. Other part was used to synthesize cDNA, and a kidney damage marker, NGAL was identified by real-time PCR. And serum was separated from the blood, and creatinine, which is a kidney damage marker in the serum, was examined, and the results are shown in FIG. 3.

[2] = system: DSS-induced colitis in C57BL6J JmcSlc mice; assay: DSS colitis, inflammatory bowel disease animal model; format: in vivo, mouse; conditions: for colonic epithelial cell recovery (H&E): FIG. 6A
Procedure: Colitis was induced in 8-week-old male C57BL6J JmcSlc mice by feeding 3.5% dextran sodium sulfate (DSS) ad libitum for 9 days, and then replacing the same with normal drinking water. The vehicle and Compound 1 (0.5 mg/kg or 1 mg/kg) were orally administered to the experimental animal model prepared as described above daily from 2 days before DSS drinking until the end of drinking. In order to determine the degree of colonic inflammation, the degree of longitudinal contraction of the isolated colon was measured, and the histological scores were confirmed through H&E staining, which is shown in FIG. 6. Furthermore, total RNA was isolated from the isolated colon, cDNA was synthesized, and the expression levels of representative cytokines (IFNγ, IL-1β, IL-4, IL-6, IL-10, IL-12β, IL-17α, and TNFα) were measured and compared using qPCR, and the results are shown in FIG. 7.

[3] = system: bone marrow-derived dendritic cells (BMDCs); assay: IL-1β release (inflammasome formation) in LPS/ATP-stimulated bone marrow-derived dendritic cells, ELISA; format: cell-based, C57BL6 mice; conditions: versus vehicle control
Procedure: Furthermore, to verify the anti-inflammatory effect at a cellular level, bone marrow cells of C57BL6 mice were treated with 20 ng/ml of GM-CSF and IL-4, and 6 days later, bone marrow-derived dendritic cells (BMDCs) were collected. The BMDCs were prepared at 1×10^6 cells/mL and stabilized for one day, and then subsequent experiments were conducted. The above dendritic cells were treated with 500 ng/ml of LPS for 3 hours to prime pro-IL1B, and then treated with Compound 1 (0 μM, 0.01 µM, 0.1 μM, 1 μM, and 10 μM) for 15 minutes. Next, 5 mM of ATP was treated, which induces inflammasome formation by converting pro-IL1B to IL-1B through pro-IL1B cleavage, and 30 minutes later, the concentration of IL-1B in the supernatant was measured by ELISA, and the results are shown in FIG. 10 and Table 3.

NCI-H295R cells = assay: Cortisol production, Cushing's syndrome cell model, ELISA; format: cell-based, human; conditions: 0.1, 0.5 and 1 μM; 8-Br-cAMP 0.5 mM; FIG. 14
Procedure: NCI-H295R cells (ATCC #CRL-2128), which are a human adrenocortical carcinoma cell line, were seeded at a density of 2.5×10^5 cells/well in a 24-well plate. The cells were cultured for 48 hours, and then they were pretreated with Compound 1 (0.1 μM, 0.5 μM, and 1 μM) for 12 hours. Furthermore, to increase cortisol synthesis, the cells were treated with 8-bromoadenosine […] (8-Br-CAMP) at a concentration of 0.5 mM, and then re-treated with Compound 1, and allowed to react for 24 hours. After the reaction, the cell culture medium was collected, and the amount of cortisol produced in the cells was measured using an ELISA kit, and the results are shown in FIG. 14.

[4] = versus vehicle-treated IR, FIG. 2
[5] = colon tissue, qPCR, versus vehicle, FIG. 7

CC(C(=O)NNc1ccc(F)cc1)n1cc(-c2cc(F)cc3c2-c2ccccc2C3(O)C(F)(F)F)cn1 (stereo not drawn) [Compound 1, 2-(4-(2-fluoro-9-hydroxy-9-(trifluoromethyl)-9H-fluoren-4-yl)-1H-pyrazol-1-yl)-N′-(4-fluorophenyl)propanehydrazide]
NGAL RNA expression ([1]; kidney, real-time PCR, p<0.01 versus IR+Vehicle, FIG. 3): significantly reduced | serum creatinine ([1]; p<0.01 versus IR+Vehicle, FIG. 3): significantly reduced | apoptosis (TUNEL staining) of kidney tissue [1, 4]: significant reduction in the apoptosis | renal tubular tissue damage (H&E staining) [1, 4]: significant reduction in the renal tubular tissue damage | longitudinal contraction of colon ([2]; 0.5 mg/kg and 1 mg/kg, oral daily, versus vehicle, FIGS. 6C and 6D): the contraction was alleviated both in the group administered 0.5 mg/kg of Compound 1 and in the group administered 1 mg/kg of Compound 1, as compared to the vehicle administration group, and the effect increased as the administration amount increased | colonic epithelial cell recovery (H&E) ([2]; 0.5 mg/kg, oral daily): the recovery was slight | colonic epithelial cell recovery (H&E) ([2]; 1 mg/kg, oral daily): remarkable epithelial cell recovery | tissue (histological) score ([2]; 1 mg/kg, oral daily, FIG. 6B): the lowest score | IFNγ mRNA expression [2, 5]: significantly reduced | IL-4 mRNA expression [2, 5]: increased | IL-6 mRNA expression [2, 5]: significantly reduced | IL-12b mRNA expression [2, 5]: significantly reduced | IL-17a mRNA expression [2, 5]: significantly reduced | TNFα mRNA expression [2, 5]: significantly reduced | inhibition at 0.1 µM ([3]; Mus musculus, BMDC, 0.1 µM, read-out: inhibition of IL-1β expression): ~83.8% | inhibition at 10 µM ([3]; Mus musculus, BMDC, 10 µM, read-out: inhibition of IL-1β expression): ~53.8% | inhibition of IL-1β expression (in words) ([3]; FIG. 10): significantly inhibited | cortisol production (NCI-H295R cells): significantly inhibited by the administration of Compound 1, and this inhibition showed a concentration-dependent tendency
